Test [1] addresses T1, HSF-PLA2 (extracellular PLA2 obtained from human synovial fluid) (Homo sapiens, UniProt P14555).
T1 construct: extracellular enzyme obtained from human synovial fluid; from tissue; host or cells: human synovial fluid (pooled)
T1 sequence (P14555 21-144): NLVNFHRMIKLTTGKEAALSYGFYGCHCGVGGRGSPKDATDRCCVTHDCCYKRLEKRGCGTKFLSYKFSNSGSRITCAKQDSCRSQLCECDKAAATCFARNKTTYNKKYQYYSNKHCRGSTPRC
Kind of test: Assay for inhibition of HSF-PLA2 in vitro. The test is classed as biochemical. The settings on record: read-out: % Inhib of HSF-PLA2; for inhibition at 5 µM: 5 μM test compound; for inhibition at 1 µM: 1 μM test compound. The protocol: Assay for Inhibition of HSF-PLA2 In Vitro
The PLA2 used in this test is the extracellular enzyme obtained from human synovial fluid (HSF-PLA2).
The assay for HSF-PLA2 activity was a modification of the described method [Franson R., Dobrow R., Weiss, J., Elsbach P., and Weglick W. B., J. Lipid Res., 19, 18-23 (1978)] which was conducted using [1-^14 C]-oleate-labelled E. coli substrate in excess at a final concentration of 20,000 dpm/ml. This was equivalent to 18.2 mM of cell membrane phospholipid phosphorus and 2×10^9 autoclaved E. coli/ml. The optimal conditions which were developed for the assay of HSF-PLA2 inhibitors are summarized as follows. A total volume of 0.5 ml of reaction mixture typically had the following final composition: substrate (20,000 dpm/ml); enzyme (0.1% HSF, v/v); 2 mM CaCl2; 150 mM Na^+; 50 mM sodium HEPES buffer, pH 7.3; and 1% dimethyl sulfoxide (DMSO, used to solubilize test inhibitors) in the presence or absence of inhibitor. The reaction was initiated by the addition of HSF-PLA2 and duplicate samples of the mixture were incubated in 13×100 mm glass tubes with shaking for 30 minutes at 37° C. The reaction was terminated by the addition of 2.5 ml of chloroform-methanol (1 to 1.5, v/v). The extraction of lipids from the stopped reaction mixture was conducted by the further additions of 0.5 ml of chloroform and 1 ml of water with mixing. After centrifuging, the lower chloroform phase was transferred to smaller glass tubes and the solvent was evaporated to dryness with a nitrogen stream. The extracted lipid residue was redissolved in […] of a solution containing carrier oleic acid (0.2 mg/ml) in chloroform-methanol [9 to 1, v/v]). The whole lipid extract was applied to a preactivated (30 minutes at 110° C.) silica gel-impregnated glass fiber thin layer chromatography sheet (ITLC type SG sheet from Gelman Sciences Inc., Ann Arbor, Mich.) using hexane-acetic acid (100 to 1, v/v) as the developing solvent. This TLC system rapidly (6 minutes) resolved the enzymatically released product, ^14 C-oleic acid, from the unreacted ^14 C-phospholipid substrate. The unsaturated lipids were located on the chromatogram by a brief exposure to iodine vapor. The oleic acid zone (Rf value 0.95) and phospholipid zone (origin) were cut out, chopped into small pieces, shaken with 2 ml of ethanol-water (80 to 20, v/v) and 15 ml of Aquasol and counted for radio-activity. A control incubation of substrate in the absence of HSF-PLA2 was performed in each experiment. The PLA2 activity of the human synovial fluid was corrected for this small control value. […] The specific activity of PLA2 in the pooled human synovial fluid under the optimal assay conditions was 49.2 nmoles [1-^14 C]-oleic aid released hour^-1 mg^-1. The IC50 (μM concentration of test compound that produces 50% inhibition of PLA2 activity) was determined for each test compound.

For test [2], the system named is croton oil-induced mouse ear edema. Kind of test: Croton oil mouse ear edema test. The test is classed as in vivo, male CD-1 mice. The following applies: 1 mg topical, coapplied with croton oil; ear punch weight at 6 hours. The protocol: Croton Oil Mouse Ear Edema Test
The croton oil-induced mouse ear edema test, a model of irritant-induced contact dermatitis, has been used for evaluation of the PLA2 inhibitors by the topical route of administration. This test was carried out as described in the following references: […]
Twenty five μl of a 1% croton oil solution [dissolved in a mixture of pyridine/water/diethyl ether at a ratio of 5/20/75 (croton oil vehicle)] are applied to the outer side of the right ear of 3-4 week old male CD-1 mice (8 animals per group). The test compounds are dissolved directly in the 1% croton oil solution at various concentrations and coapplied. Control animals receive 25 μl of croton oil vehicle on the right ear. Biopsy punches are removed at 6 hours from the right ear of the animals using a 6 mm skin trephine (Roboz, Washington, D.C.) and the wet weight of the ear punches is determined. The weight of the biopsy punches is a measure of ear inflammation, primarily edema. The data are expressed as percent inhibition relative to control groups.
Statistical analysis of the mean edema values of the control versus the treated groups is performed using Student's t-test. The significance of changes from mean value for vehicle-treated animals is as follows (*p<0.05, **p<0.01, ***p<0.005, ns/not significant).

These results are taken from patent publication US5298652A, “N-substituted glycines, inhibitors of phospholipase A2” (Hoffmann-La Roche Inc., priority 1992, dated 1994).

`CCCCCCCCCCCCCCCCCCOc1cc(OCCCOc2cccc([N+](=O)[O-])c2)cc(C(=O)N(CC(=O)O)CC(=O)O)c1` [Example 22, N-(Carboxymethyl)-N-[3-[3-(3-nitrophenoxy)propoxy]-5-(octadecyloxy)benzoyl]glycine]: the inhibition at 5 µM in test [1] turned out to be 60%. Further, the “% Inhib of Croton Oil Mouse Ear Edema (1 mg)” value (“% Inhib” for short) in test [2] came out at 54%.

`CCCCCCCCCCCCCCCCCCOc1cccc(CC(=O)N(CC(=O)O)CC(=O)O)c1` [Example 76, N-(Carboxymethyl)-N-[3-(octadecyloxy)phenylacetyl]glycine]: in test [1], the inhibition at 5 µM is 45%. Moreover, in test [2], the “% Inhib” value was found to be 38%.

As to `CCCCCCCCCCCCCCCCCCOc1cccc(C(=O)C(=O)N(CC(=O)O)CC(=O)O)c1` [Example 69, N-(Carboxymethyl)-N-[2-[3-(octadecyloxy)phenyl]-1,2-dioxoethyl]glycine], in test [1], the inhibition at 5 µM stood at 57%. Also, the “% Inhib” value in test [2] is reported as 28%.

As to `CCCCCCCCCCCCCCCCCCOc1cc(OCc2ccccc2)cc(C(=O)N(CC(=O)O)CC(=O)O)c1` [Example 38, N-(Carboxymethyl)-N-[3-(octadecyloxy)-5-(phenylmethoxy)benzoyl]glycine], in test [1], the inhibition at 5 µM amounted to 55%. The “% Inhib” value in test [2] stood at 35%.

As for `CCCCCCCCCCCCCCCCCCOc1cc(N)cc(C(=O)N(CC(=O)O)CC(=O)O)c1` [Example 44, N-(Carboxymethyl)-N-[3-amino-5-(octadecyloxy)benzoyl]glycine], the inhibition at 5 µM in test [1] was 34%. Besides, in test [2], the “% Inhib” value is listed as 35%.

Take `CCCCCCCCCCOc1cccc(C(=O)N(CC(=O)O)CC(=O)O)c1` [Example 6, N-(Carboxymethyl)-N-[3-(decyloxy)benzoyl]glycine]: the inhibition at 5 µM in test [1] stood at 8%. Also, the “% Inhib” value in test [2] was found to be 47%.

On to `CCCCCCCCCCCCCCOc1cc(OCCCCCCCCCCCCCC)cc(C(=O)N(CC(=O)O)CC(=O)O)c1` [Example 13, N-(Carboxymethyl)-N-[3,5-bis(tetradecyloxy)benzoyl]glycine], for which the inhibition at 1 µM in test [1] is 27%. Also, the “% Inhib” value in test [2] stood at 60%.

For `CCCCCCCCCCCCCCOc1cccc(C(=O)N(CC(=O)O)CC(=O)O)c1` [Example 5, N-(Carboxymethyl)-N-[3-(tetradecyloxy)benzoyl]glycine], the inhibition at 5 µM in test [1] came out at 13%.

For the compound `O=C(O)CCCCCCCCCCOc1cc(OCCCCCCCCCCC(=O)O)cc(C(=O)N(CC(=O)O)CC(=O)O)c1` [Example 35, N-(carboxymethyl)-N-[3,5-bis[(10-carboxydecyl)oxy]benzoyl]glycine], the inhibition at 5 µM in test [1] was determined as 5%. Further, the “% Inhib” value in test [2] was 50%.

With `CCCCCCCCCCCCCCCCCCOc1cc(C(=O)O)cc(C(=O)N(CC(=O)O)CC(=O)O)c1` [Example 30, N-(Carboxymethyl)-N-[3-carboxy-5-(octadecyloxy)benzoyl]glycine], the inhibition at 5 µM in test [1] is 23%.

Regarding `CCCCCCCCCCCCCCCCCCOc1cccc(CCC(=O)N(CC(=O)O)CC(=O)O)c1` [Example 79, N-(Carboxymethyl)-N-[3-[(3-octadecyloxy)phenyl]-1-oxopropyl]glycine], the inhibition at 5 µM in test [1] is 70%.

Take `CCCCCCCCCCCCCCCCCCOc1cc(C(=O)N(CC(=O)O)CC(=O)O)cc([N+](=O)[O-])c1` [Example 43, N-(carboxymethyl)-N-[3-nitro-5-(octadecyloxy)benzoyl]glycine]: the inhibition at 5 µM in test [1] was found to be 10%. For the same compound, in test [2], the “% Inhib” value is recorded as 48%.

For `CCCCCCCCCCCCCCOc1ccc(C(=O)N(CC(=O)O)CC(=O)O)cc1OCCCCCCCCCCCCCC` [Example 51, N-(Carboxymethyl)-N-[3,4-bis(tetradecyloxy)benzoyl]glycine], in test [1], the inhibition at 5 µM is 38%.

Take `CCCCCCCCCCCCCCCCCCOc1cc(OCCCOc2cccc(N)c2)cc(C(=O)N(CC(=O)O)CC(=O)O)c1` [Example 23, N-(Carboxymethyl)-N-[3-[3-(3-aminophenoxy)propoxy]-5-(octadecyloxy)benzoyl]glycine]: the inhibition at 5 µM in test [1] turned out to be 50%. Also, the “% Inhib” value in test [2] was determined as 21%.

Take `CCCCCCCCCCCCCCCCCCOc1cccc(/C=C/C(=O)N(CC(=O)O)CC(=O)O)c1` [Example 78, (E)-N-(carboxymethyl)-N-[3-[(3-octadecyloxy)phenyl]-1-oxo-2-propenyl]glycine]: in test [1], the inhibition at 5 µM came out at 68%. In test [2], the “% Inhib” value came to 48%.

On to `CCCCCCCCCCCCCCCCCCOc1cc(OCCOc2ccc3ccccc3c2)cc(C(=O)N(CC(=O)O)CC(=O)O)c1` [Example 25], for which the inhibition at 5 µM in test [1] was -16%. Besides, the “% Inhib” value in test [2] came to 44%.

Turning to `CCCCCCCCCCCCCCCCCCOc1cc(OCCCOc2ccccc2)cc(C(=O)N(CC(=O)O)CC(=O)O)c1` [Example 18, N-(Carboxymethyl)-N-[3-[3-(phenoxy)propoxy]-5-(octadecyloxy)benzoyl]glycine], in test [1], the inhibition at 5 µM was 72%. In addition, the “% Inhib” value in test [2] is on record as 59%.

Take `CCCCCCCCCCCCCCCCCCOc1cc(OCC(=O)O)cc(C(=O)N(CC(=O)O)CC(=O)O)c1` [Example 33, N-(Carboxymethyl)-N-[3-(carboxymethoxy)-5-(octadecyloxy)benzoyl]glycine]: the inhibition at 1 µM in test [1] stood at 29%. Also, in test [2], the “% Inhib” value is given as 71%.

On to `CCCCCCCCCCCCCCCCCC(=O)Nc1cccc(C(=O)N(CC(=O)O)CC(=O)O)c1` [Example 9, N-(carboxymethyl)-N-[3-(1-oxooctadecylamino)benzoyl]glycine], for which the inhibition at 5 µM in test [1] worked out at 8%. Besides, the “% Inhib” value in test [2] is listed as 20%.

On to `CCCCCCCCCCCCCCCCCCOc1cc(O)cc(C(=O)N(CC(=O)O)CC(=O)O)c1` [Example 39, N-(Carboxymethyl)-N-[3-hydroxy-5-(octadecyloxy)benzoyl]glycine], for which the inhibition at 5 µM in test [1] was determined as 20%. In test [2], the “% Inhib” value was determined as 47%.

`CCCCCCCCCCCCCCCCCCOc1cccc(C(=O)NCC(=O)O)c1` [Example 74, N-[3-(Octadecyloxy)benzoyl]glycine]: the inhibition at 5 µM in test [1] was found to be 23%. Also, the “% Inhib” value in test [2] came to 33%.

For `CCCCCCCCCCCCCCCCCCOc1cc(OCCCOc2ccc(OC)cc2)cc(C(=O)N(CC(=O)O)CC(=O)O)c1` [Example 20, N-(carboxymethyl)-N-[3-[3-(4-methoxyphenoxy)propoxy]-5-(octadecyloxy)benzoyl]glycine], the inhibition at 1 µM in test [1] came to 18%.
